These results are taken from patent US4362743A, “Antibacterial monic acid esters” (Beecham Group Limited, priority 1980, dated 1982).

Common to all, as to assay type: cell-based
Test [1] deals with M. suipneumoniae ATCC 25095. The test is described as follows: Anti-mycoplasmal activity in vitro MIC. To be noted: Mesomycoplasma hyopneumoniae, ATCC25095, 144 h.
Test [2] has as its system M. suipneumoniae PW/C/210. The test is described as follows: Anti-mycoplasmal activity in vitro MIC. To be noted: Mesomycoplasma hyopneumoniae, 144 h.
In test [3] the test system is M. bovigenitalium ATCC 14173. The test is described as follows: Anti-mycoplasmal activity in vitro MIC. The settings on record: 144 h; M. bovigenitalium ATCC 14173; Friis broth, 0.9% agarose, 6 days 37° C.; read-out: M.I.C.
In test [4] the test system is M. suipneumoniae J2206/183b. The test can be described thus: Anti-mycoplasmal activity in vitro MIC. To be noted: Mesomycoplasma hyopneumoniae, 144 h; M. suipneumoniae J2206/183b; Friis broth, 0.9% agarose, 6 days 37° C.; read-out: M.I.C.
Test [5] relates to M. hyosynoviae ATCC 25591. The test is described as follows: Anti-mycoplasmal activity in vitro MIC. The settings on record: 144 h.
The subject of test [6] is M. suipneumoniae UCD 1. The test can be described thus: Anti-mycoplasmal activity in vitro MIC. The settings on record: Mesomycoplasma hyopneumoniae, UCD1, 144 h; M. suipneumoniae UCD 1; Friis broth, 0.9% agarose, 6 days 37° C.; read-out: M.I.C.
Test [7] concerns M. dispar NCTC 10125. The test can be described thus: Anti-mycoplasmal activity in vitro MIC. The settings on record: 144 h.
For test [8], the system named is M. suipneumoniae LABER. The test can be described thus: Anti-mycoplasmal activity in vitro MIC. To be noted: Mesomycoplasma hyopneumoniae, 144 h.
Test [9] concerns M. suipneumoniae NB12. The test can be described thus: Anti-mycoplasmal activity in vitro MIC. The settings on record: Mesomycoplasma hyopneumoniae, NB12, 144 h.
The test system of test [10] is M. bovis NCTC 10131. The test is described as follows: microbe, parasite or virus in culture. To be noted: NCTC10131, 144 h.
In test [11] the test system is M. suipneumoniae MS16. The test is described as follows: Anti-mycoplasmal activity in vitro MIC. The settings on record: Mesomycoplasma hyopneumoniae, MS16, 144 h.
In test [12] the test system is M. pneumoniae ATCC 15492. The test can be described thus: Anti-mycoplasmal activity in vitro MIC. To be noted: Mycoplasmoides pneumoniae, ATCC15492, 144 h.
Test [13] concerns M. gallisepticum S6. The test is described as follows: Anti-mycoplasmal activity in vitro MIC. To be noted: Mycoplasmoides gallisepticum, 144 h; M. gallisepticum S6; Friis broth, 0.9% agarose, 6 days 37° C.; read-out: M.I.C.
The test system of test [14] is M. suipneumoniae TAM 6N. The test can be described thus: Anti-mycoplasmal activity in vitro MIC. The settings on record: Mesomycoplasma hyopneumoniae, TAM6N, 144 h; M. suipneumoniae TAM 6N; Friis broth, 0.9% agarose, 6 days 37° C.; read-out: M.I.C.
Test [15] deals with M. hyorhinis ATCC 23234. The test is described as follows: Anti-mycoplasmal activity in vitro MIC. The settings on record: Mesomycoplasma hyorhinis, ATCC23234, 144 h.
Test [16] concerns M. suipneumoniae NCTC 10110. The test is described as follows: Anti-mycoplasmal activity in vitro MIC. The settings on record: Mesomycoplasma hyopneumoniae, NCTC10110, 144 h; M. suipneumoniae NCTC 10110; Friis broth, 0.9% agarose, 6 days 37° C.; read-out: M.I.C.
The test system of test [17] is M. hyorhinis ATCC 25021. The test can be described thus: Anti-mycoplasmal activity in vitro MIC. To be noted: Mesomycoplasma hyorhinis, ATCC25021, 144 h.
In test [18] the test system is M. suipneumoniae Str. 11. The test can be described thus: Anti-mycoplasmal activity in vitro MIC. To be noted: Mesomycoplasma hyopneumoniae, STR.11, 144 h.
Test [19] concerns M. suipneumoniae JF 435. The test is described as follows: Anti-mycoplasmal activity in vitro MIC. The settings on record: Mesomycoplasma hyopneumoniae, JF435, 144 h; M. suipneumoniae JF 435; Friis broth, 0.9% agarose, 6 days 37° C.; read-out: M.I.C.
Test [20] deals with M. suipneumoniae HK (2). The test can be described thus: Anti-mycoplasmal activity in vitro MIC. To be noted: Mesomycoplasma hyopneumoniae, 144 h; M. suipneumoniae HK (2); Friis broth, 0.9% agarose, 6 days 37° C.; read-out: M.I.C.

Each structure is given as a SMILES string. In brackets after ≈: the same amount, converted by molar mass. Bounds are passed on as bounds.

Turning to `C/C(=C\C(=O)OCc1cccc(C=NO)c1)C[C@@H]1OC[C@H](C[C@@H]2O[C@H]2[C@@H](C)[C@H](C)O)[C@@H](O)[C@H]1O` [Example 8, m-Hydroxyiminomethylbenzyl monate A], the MIC came out at 0.25 µg/mL (≈ 0.524 µM) in test [1]; 0.25 µg/mL (≈ 0.524 µM) in [2]; 0.025 µg/mL (≈ 0.0524 µM) in test [3]; 0.5 µg/mL (≈ 1.05 µM) in test [4]; 0.25 µg/mL (≈ 0.524 µM) in [5]; 0.5 µg/mL (≈ 1.05 µM) in test [6]. Also, the MIC in [7] is 0.1 µg/mL (≈ 0.209 µM); in test [8], 0.25 µg/mL (≈ 0.524 µM); in test [9] it was 0.25 µg/mL (≈ 0.524 µM); in test [10], not above 0.01 µg/mL; in test [11], 0.25 µg/mL (≈ 0.524 µM); in test [12], 2.5 µg/mL (≈ 5.24 µM). The MIC in [13] was found to be 5 µg/mL (≈ 10.5 µM); in test [14], 0.5 µg/mL (≈ 1.05 µM); in test [15] it was 0.25 µg/mL (≈ 0.524 µM); in test [16], 0.5 µg/mL (≈ 1.05 µM); in test [17], 0.25 µg/mL (≈ 0.524 µM); in [18], 0.25 µg/mL (≈ 0.524 µM). Moreover, the MIC in [19] and in test [20] was 0.5 µg/mL (≈ 1.05 µM) throughout.
